According to patent publication EP2914280B1, “SOMATOSTATIN-DOPAMINE CHIMERIC ANALOGS” (IPSEN PHARMA S.A.S., priority 2012, dated 2014):
Read-outs that look alike come from different tables or passages of the source. Numbered stars: 1 amine (or outer) side, 2 acyl side, 3 side chain; on linkers, the order of the positions; unused ones are H or OH. Bridge positions count the residues as written; N and C are the ends. Square brackets hold non-standard residues; d marks the D form. Peptide text beside a SMILES is read from it. * marks the point of attachment. X1 = CN1C[C@H](CSCCN(CCSC[C@@H]2C[C@@H]3c4cccc5[nH]cc(c45)C[C@H]3N(C)C2)[C@H](CCCCN[*:2])C(=O)[*:1])C[C@@H]2c3cccc4[nH]cc(c34)C[C@H]21; X2 = CN1C[C@H](CSCC(=O)*)C[C@@H]2c3cccc4[nH]cc(c34)C[C@H]21; dDab = NCC[C@@H](N)C(=O)O

Legend:
[1] = target: T1, hSSTR2 (Homo sapiens, UniProt P30874); test: Somatostatin receptor radioligand binding assay (hSSTR2);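 further: radioligand displacement on membranes of CHO-K1 cells stably transfected with human SSTR2, specific binding taken as total minus binding left with 1000 nM SRIF-14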
T1 construct: host or cells: 'Cells expressing hSSTR2'
T1 sequence (P30874 whole entry): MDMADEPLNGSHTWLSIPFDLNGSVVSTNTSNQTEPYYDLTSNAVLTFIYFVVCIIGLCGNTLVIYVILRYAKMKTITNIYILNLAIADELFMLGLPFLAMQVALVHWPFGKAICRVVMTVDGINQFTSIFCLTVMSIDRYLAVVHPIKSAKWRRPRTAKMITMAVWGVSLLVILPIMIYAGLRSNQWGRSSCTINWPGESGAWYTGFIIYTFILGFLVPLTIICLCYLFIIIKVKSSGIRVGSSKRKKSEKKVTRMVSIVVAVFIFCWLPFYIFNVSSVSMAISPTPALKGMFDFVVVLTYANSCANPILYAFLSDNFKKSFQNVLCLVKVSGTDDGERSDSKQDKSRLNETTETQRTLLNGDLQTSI
Protocol: The affinities of a test compound for the human somatostatin receptors were determined by radioligand binding assays in CHO-K1 cells stably transfected with each of the human somatostatin receptor subtypes, hSSTR1-5. […] Clonal cell lines stably expressing each of the somatostatin receptors were obtained by transfection into CHO-K1 cells (ATCC) and subsequently selected with culture media containing 0.8 mg/mL of G418 (Life Technologies).
Membranes for in vitro receptor binding assays were obtained by the following procedures. […] The supernatant containing the plasma membranes was centrifuged at 100,000 x g for 30 minutes and the pellet was resuspended in buffer containing 20 mM glycine-glycine, 1 mM MgCl2, 250 mM sucrose, pH 7.2, for storage at -80°C.
For the SSTR1, 2 and 5 assays, membranes and various concentrations of test compounds were incubated in 96-well plates for 60 minutes at 25°C with 0.05 nM [^125I-Tyr^11]-SRIF-14 (for hSSTR1; PerkinElmer Life Science), 0.05 nM [^125I-Tyr]-seglitide (for hSSTR2; PerkinElmer Life Science) or 0.05 nM [^125I-Tyr]-[DPhe-cyclo(Cys-Tyr-DTrp-Lys-Val-Cys)-Thr-NH2] (for hSSTR5; PerkinElmer Life Science) in 50 mM HEPES, 0.2% BSA, 0.1 mM MgCl2, pH 7.5.
The incubations were terminated by rapid filtration through GF/C glass microfiber filter plates (pre-wet with 0.3% polyethyleneimine and 0.1 % BSA) using a 96-well cell harvester (Brandel). Plates were washed six times with 1 mL/well aliquots of ice-cold buffer containing 50 mM Tris buffer, pH 7.7. Specific binding was defined as the total radioligand bound minus the bound in the presence of 1000 nM SRIF-14.

[2] = target: T2, hDRD2 (Homo sapiens, UniProt P14416); test: biochemical; assay type: binding; design: expressed in transfected cells; host or cells: CHO-K1, pcDNA3.1/GS, zeocin-selected clonal line; membranes
T2 sequence (P14416 whole entry): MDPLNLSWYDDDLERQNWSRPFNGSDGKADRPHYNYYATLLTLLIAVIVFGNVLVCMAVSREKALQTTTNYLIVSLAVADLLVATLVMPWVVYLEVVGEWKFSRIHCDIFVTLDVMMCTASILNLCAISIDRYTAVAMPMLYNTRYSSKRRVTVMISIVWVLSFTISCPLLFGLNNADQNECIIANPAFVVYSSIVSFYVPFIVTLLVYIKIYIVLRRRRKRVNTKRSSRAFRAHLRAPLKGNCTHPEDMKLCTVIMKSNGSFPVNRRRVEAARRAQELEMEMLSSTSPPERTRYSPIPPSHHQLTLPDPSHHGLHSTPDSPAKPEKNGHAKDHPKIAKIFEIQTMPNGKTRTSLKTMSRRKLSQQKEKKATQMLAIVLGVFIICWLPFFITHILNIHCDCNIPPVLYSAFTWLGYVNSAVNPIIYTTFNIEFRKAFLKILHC

[3] = target: T2, hDRD2; test: cell-based; design: host or cells: 'Cells expressing hDRD2'; conditions: for Emax: read-out: hDRD2 %Emax ± SEM
[4] = target: T1, hSSTR2; test: Intracellular calcium mobilization assay (FLIPR Calcium 4), hSSTR2; assay type: cell-based;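 further: agonist activity measured in cells expressing hSSTR2, seeded in 384-well plates, loaded with Calcium 4 dye, read-out as rise in intracellular calcium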
[5] = CHO-K1 cell membranes, […] [3H]-spiperone, 60 minutes at 25°C, read-out: hDRD2 Ki (nM) ± SEM

Row | Compound | Ki [2, 5] [nM] | Emax [3] [%] | EC50 [4] [nM] | Ki [1] [nM] | further results
1 | C[C@@H](O)[C@@H]1NC(=O)[C@H](CCCCN)NC(=O)[C@@H](Cc2c[nH]c3ccccc23)NC(=O)[C@H](Cc2ccccc2)NC(=O)[C@H](Cc2ccccc2)NC(=O)[C@H](CCCNC(=N)N)NC(=O)[C@H](NC[C@@H](Cc2ccc(O)cc2)NC(=O)CSC[C@@H]2C[C@@H]3c4cccc5[nH]cc(c45)C[C@H]3N(C)C2)CCCCNC(=O)[C@H](Cc2ccccc2)NC1=O [Compound 41, Dop1-DTyr-psi(CH2NH)-cyclo(DLys-Arg-Phe-Phe-DTrp-Lys-Thr-Phe)] | 8.5 ± 3.6 | 91.2 |  |  | Ki ([1]; CHO-K1 cell membranes, 0.05 nM [125I-Tyr]-seglitide, 60 minutes at 25°C, read-out: hSSTR2 Ki (nM) ± SEM): 0.37 nM
2 | C[C@@H](O)[C@@H]1NC(=O)[C@H](CCCCN)NC(=O)[C@@H](Cc2c[nH]c3ccccc23)NC(=O)[C@H](Cc2ccccc2)NC(=O)[C@H](Cc2ccccc2)NC(=O)[C@H](CCCNC(=N)N)NC(=O)[C@H](NC[C@H](Cc2ccc(O)cc2)NC(=O)CSC[C@@H]2C[C@@H]3c4cccc5[nH]cc(c45)C[C@H]3N(C)C2)CCCNC(=O)[C@H](Cc2ccccc2)NC1=O [Compound 30, Dop1-Tyr-psi(CH2NH)-cyclo(DOrn-Arg-Phe-Phe-DTrp-Lys-Thr-Phe)] |  |  | 13.1 ± 4.2 | 0.4 ± 0.06 | 
3 | CC(=O)N(CCCNC(CN[C@@H]1CCCCNC(=O)[C@H](Cc2ccc(F)cc2)NC(=O)[C@H]([C@@H](C)O)NC(=O)[C@H](CCCCN)NC(=O)[C@@H](Cc2c[nH]c3ccccc23)NC(=O)[C@H](Cc2ccccc2)NC(=O)[C@H](Cc2ccccc2)NC(=O)[C@H](CCCNC(=N)N)NC1=O)Cc1ccc(O)cc1)C[C@@H]1C[C@@H]2c3cccc4[nH]cc(c34)C[C@H]2N(C)C1 (single isomer, unassigned) [Compound 28A, 3-[N-acetyl-N-(D-6-methyl-8β-ergolinylmethyl)]-aminopropionyl-psi(CH2NH)-Tyr-psi(CH2NH)-cyclo(DLys-Arg-Phe-Phe-DTrp-Lys-Thr-4FPhe)] |  | 79.7 ± 11.4 |  | 0.04 ± 0.02 | Ki [2]: 14 ± 3.4 nM
4 | C[C@@H](O)[C@@H]1NC(=O)[C@H](CCCCN)NC(=O)[C@@H](Cc2c[nH]c3ccccc23)NC(=O)[C@H](Cc2ccccc2)NC(=O)[C@H](Cc2ccccc2)NC(=O)[C@H](CCCNC(=N)N)NC(=O)[C@H](N(CCSC[C@@H]2C[C@@H]3c4cccc5[nH]cc(c45)C[C@H]3N(C)C2)CCSC[C@@H]2C[C@@H]3c4cccc5[nH]cc(c45)C[C@H]3N(C)C2)CCCCNC(=O)[C@H](Cc2ccccc2)NC1=O [Compound 40, bis[Dop1-psi(CH2N)]-cyclo(DLys-Arg-Phe-Phe-DTrp-Lys-Thr-Phe)] (RFF[dW]KTF; linker N-C via X1) |  | 91.5 | 27 ± 6.5 | 3.17 ± 1.41 | EC50 [3]: 123 ± 6.5 nM
5 | C[C@@H](O)[C@@H]1NC(=O)[C@H](CCCCN)NC(=O)[C@@H](Cc2c[nH]c3ccccc23)NC(=O)[C@H](Cc2cccnc2)NC(=O)[C@H](Cc2ccccc2)NC(=O)[C@H](CCCNC(=N)N)NC(=O)[C@H](NC[C@H](Cc2ccc(O)cc2)NC(=O)CSC[C@@H]2C[C@@H]3c4cccc5[nH]cc(c45)C[C@H]3N(C)C2)CCCCNC(=O)[C@H](Cc2ccccc2)NC1=O [Compound 38, Dop1-Tyr-psi(CH2NH)-cyclo(DLys-Arg-Phe-3Pal-DTrp-Lys-Thr-Phe)] | 179 ± 113 | 97.5 ± 0.3 |  |  | 
6 | C[C@@H](O)[C@@H]1NC(=O)[C@H](CCCCN)NC(=O)[C@@H](Cc2c[nH]c3ccccc23)NC(=O)[C@H](Cc2ccccc2)NC(=O)[C@H](Cc2ccccc2)NC(=O)[C@H](CCCNC(=N)N)NC(=O)[C@H](NC(=O)[C@H](CCCCNC(=O)CSC[C@@H]2C[C@@H]3c4cccc5[nH]cc(c45)C[C@H]3N(C)C2)NC(=O)CSC[C@@H]2C[C@@H]3c4cccc5[nH]cc(c45)C[C@H]3N(C)C2)CCNC(=O)[C@H](Cc2ccccc2)NC1=O [Reference Compound C, Dopl-Lys(Dopl)-cyclo(DDab-Arg-Phe-Phe-DTrp-Lys-Thr-Phe), reference compound] (X2-K(X2)[dDab]RFF[dW]KTF; lactam 2-C (inferred)) |  | 101 ± 0.8 |  |  | Emax ([4]; read-out: hSSTR2 %Emax ± SEM): 60.6 ± 3.2%
